According to patent US20110105496A1, “Methods For The Treatment Of Myosin Heavy Chain-Mediated Conditions Using 4,7-Dihydrothieno[2,3-B]Pyridine Compounds” (priority 2005, published 2011):
Where two headings read alike, the source gives them in different places.

Test system: alpha-MyHC
Assay: alpha-MyHC cytoblot process in neonatal rat ventricular myocytes (NRVM)
Assay type: cell-based
Details: for EC50: alpha-MyHC cytoblot
[1] = Table 2 (esters), NRVM, 72 hours
[2] = Table 2 (esters), NRVM, 72 hours, maximum of dose response fit
[3] = Table 1, NRVM, 72 hours, mean ± spread
[4] = Table 1, NRVM, 72 hours, maximum of dose response fit, low control = vehicle only

Row | SMILES | EC50 [1] | EC50 [3] | Max Plateau [2] | Max Plateau [4] | further results
1 | CC(=O)C1=C(C)Nc2sc(C(=O)c3ccccc3)c(N)c2C1C1CCCCC1 (centres unmarked) [Compound 26] | – | 943 nM | – | 185.33 ± 55.04 per cent fraction of low control | –
2 | CC(=O)C1=C(C)Nc2sc(C(=O)c3ccccc3)c(N)c2C1c1ccccc1 (centres unmarked) [Compound 3] | – | 797 nM | – | 250.88 ± 32.62 per cent fraction of low control | –
3 | CCC(=O)C1=C(CC)Nc2sc(C(=O)c3ccc(Cl)c(Cl)c3)c(N)c2C1c1ccccc1Cl (centres unmarked) [Compound 53] | – | 58.1 nM | – | 259.43 ± 26.30 per cent fraction of low control | –
4 | CC(=O)C1=C(C)Nc2sc(C(=O)c3cccc(C(=O)O)c3)c(N)c2C1c1ccccc1 (centres unmarked) [Compound 65] | – | – | – | 100.00 ± 0.00 per cent fraction of low control | –
5 | CC(=O)C1=C(C)Nc2sc(C(=O)c3ccccc3)c(N)c2C1c1ccncc1 (centres unmarked) [Compound 19] | – | 3390 nM | – | 260.00 ± 36.06 per cent fraction of low control | –
6 | CCC(=O)C1=C(CC)Nc2sc(C(=O)c3ccc(F)cc3)c(N)c2C1c1ccccc1 (centres unmarked) [Compound 79] | – | 40.8 nM | – | 241.90 ± 15.79 per cent fraction of low control | –
7 | CC(=O)C1=C(C)Nc2sc(C(=O)c3ccc(Cl)c(Cl)c3)c(N)c2C1c1ccc(F)cc1 (centres unmarked) [Compound 50] | – | 161 nM | – | 190.79 ± 27.94 per cent fraction of low control | –
8 | CCC(=O)C1=C(CC)Nc2sc(C(=O)c3ccccc3Br)c(N)c2C1c1ccccc1 (centres unmarked) [Compound 106] | – | 8.93 nM | – | 244.21 ± 29.53 per cent fraction of low control | –
9 | CCC(=O)C1=C(CC)Nc2sc(C(=O)c3ccc(F)c(F)c3)c(N)c2C1c1ccnc(F)c1 (centres unmarked) [Compound 102] | – | 4.18 nM | – | 269.88 ± 36.90 per cent fraction of low control | –
10 | CC(=O)C1=C(C)Nc2sc(C(=O)c3ccc(Cl)c(Cl)c3)c(N)c2C1c1ccc(Cl)c(Cl)c1 (centres unmarked) [Compound 47] | – | 116 nM | – | 173.47 ± 25.64 per cent fraction of low control | –
11 | CCC(=O)C1=C(CC)Nc2sc(C(=O)c3ccc(Cl)c(Cl)c3)c(N)c2C1c1c(F)cccc1Cl (centres unmarked) [Compound 40] | – | 14.4 nM | – | 244.87 ± 7.92 per cent fraction of low control | –
12 | CC(=O)C1=C(C)Nc2sc(C(=O)c3ccc(Cl)c(Cl)c3)c(N)c2C1c1ccc(Br)cc1 (centres unmarked) [Compound 22] | – | 2070 nM | – | 174.35 ± 23.39 per cent fraction of low control | –
13 | CC(=O)C1=C(C)Nc2sc(C(=O)c3ccccn3)c(N)c2C1c1ccccc1 (centres unmarked) [Compound 16] | – | 4290 nM | – | 163.33 ± 32.15 per cent fraction of low control | –
14 | CCCC(=O)C1=C(CCC)Nc2sc(C(=O)c3ccc(Cl)c(Cl)c3)c(N)c2C1c1ccccc1 (centres unmarked) [Compound 86] | – | 627 nM | – | 131.26 ± 2.34 per cent fraction of low control | –
15 | CC(=O)C1=C(C)Nc2sc(C(=O)c3ccc(Cl)c(Cl)c3)c(N)c2C1c1ccc[nH]1 (centres unmarked) [Compound 42] | – | 4590 nM | – | 160.56 ± 20.02 per cent fraction of low control | –
16 | COCC1=C(C(=O)OC)C(c2ccccc2)c2c(sc(C(=O)c3ccc(Cl)c(Cl)c3)c2N)N1 (centres unmarked) [Compound 120] | 157 nM | – | 140.79 per cent fraction of low control | – | –
17 | CCOC(=O)C1=C(C)Nc2sc(C(=O)c3cccc(Br)c3)c(N)c2C1(C)c1ccccc1 (centres unmarked) [Compound 197] | – | – | – | – | EC50 (Rattus norvegicus, Ventricular myocyte, Table 4, NRVM, 72 hours): 792 nM; Emax (Rattus norvegicus, Ventricular myocyte, Table 4, NRVM, 72 hours, maximum of dose response fit, read-out: Max Plateau): 160 ± 10.9%
18 | CCC(=O)C1=C(CC)Nc2sc(C(=O)c3ccc(Cl)c(Cl)c3)c(N)c2C1c1ccnc(Cl)c1 (centres unmarked) [Compound 99] | – | 5.23 nM | – | 264.37 ± 33.84 per cent fraction of low control | –
19 | CC(=O)C1=C(C)Nc2sc(C(=O)c3cccnc3)c(N)c2C1c1ccccc1 (centres unmarked) [Compound 5] | – | 2330 nM | – | 286.43 ± 42.04 per cent fraction of low control | –
20 | CCC(=O)C1=C(CC)Nc2sc(C(=O)c3ccc(Cl)c(C)c3)c(N)c2C1c1ccccc1 (centres unmarked) [Compound 89] | – | 9.69 nM | – | 230.09 ± 19.81 per cent fraction of low control | –
21 | CCC(=O)C1=C(CC)Nc2sc(C(=O)c3cccc([N+](=O)[O-])c3)c(N)c2C1c1ccccc1F (centres unmarked) [Compound 97] | – | 1.64 nM | – | 247.24 ± 38.88 per cent fraction of low control | –
22 | CCOC(=O)C1=C(C)Nc2sc(C(=O)c3ccc(Cl)c(Cl)c3)c(N)c2C1c1ccccc1 (centres unmarked) [Compound 113] | 68 nM | – | 256.38 per cent fraction of low control | – | –
23 | CC(=O)C1=C(C)Nc2sc(C(=O)c3ccccc3)c(N)c2C1c1ccc(C(F)(F)F)cc1 (centres unmarked) [Compound 44] | – | 1720 nM | – | 186.67 ± 11.55 per cent fraction of low control | –
24 | CC(=O)NCCOC(=O)C1=C(C)Nc2sc(C(=O)c3ccc(Cl)c(Cl)c3)c(N)c2C1c1ccccc1 (centres unmarked) [compound 214] | – | – | – | – | Max Plateau: 100.00 ± 0.00
25 | CCC(=O)C1=C(CC)Nc2sc(C(=O)c3ccccc3)c(N)c2C1c1c(F)cccc1F (centres unmarked) [Compound 69] | – | 31.7 nM | – | 221.36 ± 15.94 per cent fraction of low control | –
26 | CCC(=O)C1=C(CC)Nc2sc(C(=O)c3ccc(Cl)c(Cl)c3)c(N)c2C1c1cc(F)cc(F)c1 (centres unmarked) [Compound 100] | – | 5.73 nM | – | 262.04 ± 31.65 per cent fraction of low control | –

Now from value to molecule, other results behind:

Row | EC50 [1] | EC50 [3] | SMILES | Max Plateau [2] | Max Plateau [4] | further results
27 | 77.6 nM | – | CCC1=C(C(=O)OC(C)COC)C(c2ccccc2F)c2c(sc(C(=O)c3cccc(C#N)c3)c2N)N1 (centres unmarked) [Compound 193] | 230.28 ± 6.46 per cent fraction of low control | – | –
28 | 10.1 nM | – | CCOC(=O)C1=C(CC)Nc2sc(C(=O)c3cc(F)cc(F)c3)c(N)c2C1c1ccccc1 (centres unmarked) [Compound 151] | 273.61 per cent fraction of low control | – | –
29 | 1710 nM | – | CCC1=C(C(=O)OCC(C)OC)C(c2ccccc2F)c2c(sc(C(=O)c3cccc(C#N)c3)c2N)N1 (centres unmarked) [Compound 185] | 172.89 ± 23.52 per cent fraction of low control | – | –
30 | 42.1 nM | – | COC(=O)C1=C(C2CC2)Nc2sc(C(=O)c3cccc(Cl)c3)c(N)c2C1c1ccnc(F)c1 (racemic) [Compound 176] | 218.25 per cent fraction of low control | – | –
31 | 5.24 nM | – | CCC1=C(C(=O)OC)C(c2ccccc2)c2c(sc(C(=O)c3cccc(C#N)c3)c2N)N1 (centres unmarked) [Compound 143] | 290.53 per cent fraction of low control | – | –
32 | 6.78 nM | – | CCOC(=O)C1=C(CC)Nc2sc(C(=O)c3ccc(Cl)c(Cl)c3)c(N)c2C1c1ccccc1F (centres unmarked) [Compound 142] | 194.32 per cent fraction of low control | – | –
33 | 111000 nM | – | CCC1=C(C(=O)OC)C(c2ccccc2F)c2c(sc(C(=O)c3cccc(Cl)c3)c2N)N1 (centres unmarked) [Compound 167] | 255.95 per cent fraction of low control | – | –
34 | 7.12 nM | – | CCOC(=O)C1=C(CC)Nc2sc(C(=O)c3ccc(Cl)c(Cl)c3)c(N)c2C1c1ccncc1F (centres unmarked) [Compound 168] | 239.64 per cent fraction of low control | – | –
35 | 118 nM | – | CC1=C(C(=O)OC(C)C)C(c2ccccc2)c2c(sc(C(=O)c3ccc(Cl)c(Cl)c3)c2N)N1 (centres unmarked) [Compound 135] | 186.32 per cent fraction of low control | – | –
36 | 19.3 nM | – | CCC1=C(C(=O)OC)C(c2cccc(Cl)c2F)c2c(sc(C(=O)c3ccc(Cl)c(Cl)c3)c2N)N1 (centres unmarked) [Compound 155] | 224.86 per cent fraction of low control | – | –
37 | 4580 nM | – | CC1=C(C(=O)OCC2CCCN2C)C(c2ccccc2)c2c(sc(C(=O)c3ccc(Cl)c(Cl)c3)c2N)N1 (centres unmarked) [Compound 129] | 150.08 ± 9.89 per cent fraction of low control | – | –
38 | 1.89 nM | – | CCC1=C(C(=O)OC)C(c2cc(F)cc(F)c2)c2c(sc(C(=O)c3ccc(F)c(F)c3)c2N)N1 (centres unmarked) [Compound 170] | 262.16 per cent fraction of low control | – | –
